# In patent publication US9340549B2, “Oxazolidinone compounds and derivatives thereof” (priority 2012, dated 2016):
# pIC50: −log10 of the molar value. Where two headings read alike, the source gives them in different places.
# Experiments:
# [1] = system: total β-catenin in SW480 colorectal cells; assay: cells; assay type: cell-based
# Procedure: Total β-Catenin MSD 96-Well Plate Assay for SW480 Cells
# SW480 colorectal cells were seeded at a density of 10,000/well in CellBIND 96-well plates (Corning catalog no. 3300) in 60 μL of normal growth medium (MEM alpha supplemented with 10% heat inactivated FBS, GlutaMAX, pyruvate, and 10 mM HEPES).
# A 10-point, 3-fold dilution series for each TNKS inhibitor was constructed in a 96-well “stock” plate. […] The plates were incubated at 37° C. for 40 to 48 hours. The media was removed from the CellBIND plate via plate inversion and gentle shaking and the inverted plate was touched to a paper towel and immediately placed on ice. […] Plates containing cell lysates were sealed and shaken for one hour at 4° C. and then quickly frozen in a −80° C. for approximately 15 to 30 minutes followed by gradually thawing at 4° C. Finally, lysate containing plates were centrifuged @1000×g (2073 rpm) for 10 minutes at 4° C.
# The sealed MSD plate was incubated overnight in a cold room with gentle shaking. The MSD plate was then blocked with 150 μL of Blocker “A” per well and incubated overnight at 4° C. with vigorous shaking. The blocked MSD plate was washed 4 times with 150 μL/well TBS-T wash buffer (150 mM NaCl, 50 mM Tris, pH 7.5, 0.02% Tween-20). Cell lysates (75 μL) were transferred to prepared MSD plates and incubated at 4° C. ON with gentle shaking. […] The detection antibody was incubated for 1 hour at room temperature with vigorous shaking after which plates were washed 3 times with 150 μL/well TBS-T wash buffer. Plates were processed for analysis by the addition of 150 μL/well MSD Read 4× Buffer T with surfactant (catalog no. R92TC-2; diluted 1:3 in deionized water) and were read on the SECTOR Imager 6000.
# [2] = target: 6×HIS-tankyrase 1 (1091-1325) (Homo sapiens (Human), UniProt O95271); assay: biochemical; assay type: biochemical; conditions: 400 nM NAD, 60 minutes at room temperature, read-out: TNKS1 IP IC50
# 6×HIS-tankyrase 1 (1091-1325), sequence (O95271 1091-1325): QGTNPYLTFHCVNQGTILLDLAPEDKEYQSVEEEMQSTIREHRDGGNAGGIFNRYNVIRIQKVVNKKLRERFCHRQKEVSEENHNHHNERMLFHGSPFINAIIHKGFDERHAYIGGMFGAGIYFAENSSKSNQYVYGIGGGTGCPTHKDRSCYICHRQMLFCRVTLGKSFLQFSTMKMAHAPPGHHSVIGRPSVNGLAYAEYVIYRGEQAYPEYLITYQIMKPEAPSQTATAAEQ
# [3] = Homo sapiens, SW480 cells, 40 to 48 hours, top concentration 10 μM, read-out: SW480-Total β-Catenin IC50 IP
Compound,"pIC50 [1, 3]",pIC50 ([2]; […] enzyme),other results
"CC1(C)OC(=O)N([C@H]2CC[C@H](n3c(=O)[nH]c4c(F)cc(F)cc43)CC2)[C@H]1c1ccccc1 [Example 104, (S)-3-((1r,4S)-4-(4,6-difluoro-2-oxo-2,3-dihydro-1H-benzo[d]imidazol-1-yl)cyclohexyl)-5,5-dimethyl-4-phenyloxazolidin-2-one]",< 5.00,7.03,–
"CC1(C)OC(=O)N([C@H]2CC[C@H](n3c(=O)[nH]c4cc(C#N)c(F)cc43)CC2)[C@H]1c1ccccc1 [Example 103, 1-((1S,4r)-4-((S)-5,5-dimethyl-2-oxo-4-phenyloxazolidin-3-yl)cyclohexyl)-6-fluoro-2-oxo-2,3-dihydro-1H-benzo[d]imidazole-5-carbonitrile]",7.17,–,–
"CC1(C)OC(=O)N(C2CCN(c3cnc4ccn(-c5ncccn5)c4c3)CC2)[C@H]1c1ccccc1 [Example 140, (S)-5,5-dimethyl-4-phenyl-3-(1-(1-(pyrimidin-2-yl)-1H-pyrrolo[3,2-b]pyridin-6-yl)piperidin-4-yl)oxazolidin-2-one]",5.74,7.61,–
"CC1(C)OC(=O)N([C@@H]2CC=C(c3cnc4ccn(-c5ncccn5)c4c3)CC2)[C@H]1c1ccccc1 (mixture of isomers) [Example 173, Mixture of (S)-5,5-dimethyl-4-phenyl-3-((S)-4-(1-(pyrimidin-2-yl)-1H-pyrrolo[3,2-b]pyridin-6-yl)cyclohex-3-en-1-yl)oxazolidin-2-one and (S)-5,5-dimethyl-4-phenyl-3-((R)-4-(1-(pyrimidin-2-yl)-1H-pyrrolo[3,2-b]pyridin-6-yl)cyclohex-3-en-1-yl)oxazolidin-2-one]",5.95,8.03,–
"CC1(C)OC(=O)N([C@H]2CC[C@H](n3c(=O)n(CC(F)F)c4cnccc43)CC2)[C@H]1c1ccccc1 [Example 39, (S)-3-((1r,4S)-4-(3-(2,2-difluoroethyl)-2-oxo-2,3-dihydro-1H-imidazo[4,5-c]pyridin-1-yl)cyclohexyl)-5,5-dimethyl-4-phenyloxazolidin-2-one]",5.17,–,–
"CC1(C)OC(=O)N(c2ccc(C(=O)Nc3cccc4cccnc34)cc2)C1c1cccnc1 (racemic) [Example 9, (+/−)-(R/S)-4-(5,5-dimethyl-2-oxo-4-(pyridin-3-yl)oxazolidin-3-yl)-N-(quinolin-8-yl)benzamide]",5.61,–,pIC50 ([2]; 0.25 nM enzyme): 5.94
"COc1cccc([C@@H]2N(c3ccc(C(=O)Nc4cccc5cccnc45)cc3)C(=O)OC2(C)C)c1 [Example 107, (S)-4-(4-(3-Methoxyphenyl)-5,5-dimethyl-2-oxooxazolidin-3-yl)-N-(quinolin-8-yl)benzamide]",5.63,7.05,–
"(S)-3-(4-(6-amino-5-(5-chloropyridazin-3-yl)pyridin-3-yl)phenyl)-5,5-dimethyl-4-phenyloxazolidin-2-one [Example 100]",–,6.66,"pIC50 ([1]; SW480 cells, 40 to 48 hours, top concentration 10 μM, read-out: SW480-Total β-Catenin IC50 IP): 5.47"
"CC1(C)OC(=O)N([C@@H]2CC=C(c3cnc4cc[nH]c4c3)CC2)[C@H]1c1ccccc1 (mixture of isomers) [Example 169, mixture of (S)-3-((S)-4-(1H-pyrrolo[3,2-b]pyridin-6-yl)cyclohex-3-en-1-yl)-5,5-dimethyl-4-phenyloxazolidin-2-one and (S)-3-((R)-4-(1H-pyrrolo[3,2-b]pyridin-6-yl)cyclohex-3-en-1-yl)-5,5-dimethyl-4-phenyloxazolidin-2-one]",5.50,7.05,–
"CC1(C)OC(=O)N(c2ccc(C(=O)Nc3cccc4cccnc34)cc2)[C@H]1c1ccccn1 [Example 123, (S)-4-(5,5-dimethyl-2-oxo-4-(pyridin-2-yl)oxazolidin-3-yl)-N-(quinolin-8-yl)benzamide]",5.46,6.64,–
"CC1(C)OC(=O)N(c2ccc(C(=O)Nc3nccc4cccnc34)cc2)[C@H]1c1ccccc1 [Example 20, (S)-4-(5,5-dimethyl-2-oxo-4-phenyloxazolidin-3-yl)-N-(1,7-naphthyridin-8-yl)benzamide]",5.27,5.83,–
"CC1(C)OC(=O)N(c2ccc(-c3cnc(N)c(-c4nccc(C(=N)N)n4)c3)cc2)[C@H]1c1ccccc1 [Example 99, (S)-2-(2-amino-5-(4-(5,5-dimethyl-2-oxo-4-phenyloxazolidin-3-yl)phenyl)pyridin-3-yl)pyrimidine-4-carboximidamide]",–,–,"pIC50 ([1]; Homo sapiens, SW480, read-out: SW480-Total β-Catenin IC50 IP): 6.21; pIC50 ([2]; 0.25 nM enzyme): 7.84"
"CC1(C)OC(=O)N([C@H]2CC[C@H](NC(=O)c3ccc4cc[nH]c4n3)CC2)[C@H]1c1ccccc1 [Example 147, N-((1S,4r)-4-((S)-5,5-dimethyl-2-oxo-4-phenyloxazolidin-3-yl)cyclohexyl)-1H-pyrrolo[2,3-b]pyridine-6-carboxamide]",–,7.58,–
"CC1(C)OC(=O)N([C@H]2C[C@H](c3nnc(-c4ccccc4)o3)C2)[C@@H]1c1ccccc1 (single isomer, unassigned) [Example 176]",–,–,pIC50 ([2]; 0.25 nM enzyme): 5.50
"COc1ccccc1C(=O)N[C@H]1CC[C@H](N2C(=O)OC(C)(C)[C@@H]2c2ccccc2)CC1 [Example 163, N-((1S,4r)-4-((S)-5,5-dimethyl-2-oxo-4-phenyloxazolidin-3-yl)cyclohexyl)-2-methoxybenzamide]",–,6.66,–
"CC1(C)OC(=O)N([C@H]2CC[C@H](NC(=O)c3cnn4cccnc34)CC2)[C@H]1c1ccccc1 [Example 146, N-((1S,4r)-4-((S)-5,5-dimethyl-2-oxo-4-phenyloxazolidin-3-yl)cyclohexyl)pyrazolo[1,5-a]pyrimidine-3-carboxamide]",–,8.04,–
"CC1(C)OC(=O)N([C@H]2CC[C@H](NC(=O)c3ccncc3)CC2)[C@H]1c1ccccc1 [Example 142, N-((1S,4r)-4-((S)-5,5-dimethyl-2-oxo-4-phenyloxazolidin-3-yl)cyclohexyl)isonicotinamide]",–,6.69,–
"CC1(C)OC(=O)N([C@H]2CC[C@H](NC(=O)c3csc(-c4ccncc4)n3)CC2)[C@H]1c1ccccc1 [Example 167, N-((1S,4r)-4-((S)-5,5-dimethyl-2-oxo-4-phenyloxazolidin-3-yl)cyclohexyl)-2-(pyridin-4-yl)thiazole-4-carboxamide]",–,< 4.33,–
"Cc1ccc([C@H]2CC[C@@H](N3C(=O)OC(C)(C)[C@@H]3c3ccccc3)CC2)cn1 [Example 134, (S)-5,5-dimethyl-3-((1 s,4r)-4-(6-methylpyridin-3-yl)cyclohexyl)-4-phenyloxazolidin-2-one]",–,–,pIC50 ([2]; 0.25 nM enzyme): < 4.33
"CC1(C)OC(=O)N([C@H]2CC[C@H](NC(=O)c3ccccc3)CC2)[C@H]1c1ccccc1 [Example 141, N-((1S,4r)-4-((S)-5,5-dimethyl-2-oxo-4-phenyloxazolidin-3-yl)cyclohexyl)benzamide]",–,6.12,–
"CC1(C)OC(=O)N([C@H]2CC[C@H](n3c(=O)[nH]c4cccnc43)CC2)[C@@H]1c1ccccc1 [Example 38, (R)-5,5-dimethyl-3-((1r,4R)-4-(2-oxo-1H-imidazo[4,5-b]pyridin-3(2H)-yl)cyclohexyl)-4-phenyloxazolidin-2-one]",5.32,–,–
"CC1(C)OC(=O)N([C@H]2CC[C@H](NC(=O)c3ccc4scnc4c3)CC2)[C@H]1c1ccccc1 [Example 150, N-((1S,4r)-4-((S)-5,5-dimethyl-2-oxo-4-phenyloxazolidin-3-yl)cyclohexyl)benzo[d]thiazole-5-carboxamide]",–,5.81,–
"Cc1ccc([C@H]2CC[C@H](N3C(=O)OC(C)(C)[C@@H]3c3ccccc3)CC2)cn1 [Example 135, (S)-5,5-dimethyl-3-((1r,4s)-4-(6-methylpyridin-3-yl)cyclohexyl)-4-phenyloxazolidin-2-one]",–,–,pIC50 ([2]; 0.25 nM enzyme): 5.86
"CC1(C)OC(=O)N([C@H]2C[C@H](c3nnc(-c4ccccc4)o3)C2)[C@H]1c1ccccc1 (single isomer, unassigned) [Example 177]",–,–,pIC50 ([2]; 0.25 nM enzyme): 5.99
"CC1(C)OC(=O)N([C@H]2CC[C@H](NC(=O)c3cnc4ccccc4c3)CC2)[C@@H]1c1ccccc1 [Example 155, N-((1R,4r)-4-((R)-5,5-dimethyl-2-oxo-4-phenyloxazolidin-3-yl)cyclohexyl)quinoline-3-carboxamide]",–,6.26,–
"C[C@H]1OC(=O)N([C@H]2CC[C@H](n3c(=O)[nH]c4cc(C#N)ccc43)CC2)[C@H]1c1ccccc1 [Example 178, 1-((1R,4s)-4-((4S,5R)-5-methyl-2-oxo-4-phenyloxazolidin-3-yl)cyclohexyl)-2-oxo-2,3-dihydro-1H-benzo[d]imidazole-5-carbonitrile]",–,9.43,–
"CC1(C)OC(=O)N([C@H]2CC[C@H](c3cnc4[nH]ccc4c3)CC2)[C@H]1c1ccccc1 [Example 137, (S)-3-((1r,4s)-4-(1H-pyrrolo[2,3-b]pyridin-5-yl)cyclohexyl)-5,5-dimethyl-4-phenyloxazolidin-2-one]",–,–,pIC50 ([2]; 0.25 nM enzyme): 6.66
